From US20070213301A1 (ACHILLION PHARMACEUTICALS, INC., priority 2006, published 2007)
pEC50: −log10 of the molar value.

Test system: HCV replicon
Assay: HCV replicon replication assay (NPTII ELISA)
Assay type: cell-based, Hepatitis C virus (Huh-7 cells)
Settings: Hepatitis C virus, Huh-7, 72 h, inhibition of HCV replicon replication in Huh-7 HCV replicon-containing cells, three days incubation, NPT level by ELISA; read-out: EC50
In short: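 Huh-7 cells carrying a Bartenschlager NPTII (neo) HCV replicon, treated 3 days at 37 °C with compound, generally 6 concentrations from 10 to 0.03 micromolar, in equal DMSO across wells. NPTII level, proportional to replication, read by capture ELISA on methanol:acetone-fixed cells; interferon alpha positive control; toxicity scored visually or by MTS.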

| Structure (SMILES) | pEC50 |
| --- | --- |
| CCCCCCCCOc1ccc(N(C(=O)c2cc(C)on2)c2nc(-c3ccc(Cl)s3)cs2)cc1 [Compound 89, N-(4-(5-chlorothiophen-2-yl)thiazol-2-yl)-5-methyl-N-(4-(octyloxy)phenyl)isoxazole-3-carboxamide] | > 6.00 |
| CCCCCOc1ccc(N(C(=O)CC(=O)OC)c2nc(-c3ccc(F)cc3)cs2)cc1C(F)(F)F [Compound 43, methyl 3-((4-(4-fluorophenyl)thiazol-2-yl)(4-(pentyloxy)-3-(trifluoromethyl)phenyl)amino)-3-oxopropanoate] | > 6.00 |
| CCCCCCCCOc1ccc(N(C(=O)NC(C)(C)C)c2nc(-c3cccnc3)cs2)cc1 [Compound 74, 3-tert-butyl-1-(4-(octyloxy)phenyl)-1-(4-(pyridin-3-yl)thiazol-2-yl)urea] | 5.00 to 6.00 |
| CCCCCCCCOc1ccc(N(C(=O)CN(C)C)c2nc(-c3cccnc3)cs2)cc1C(F)(F)F [Compound 160, 2-(dimethylamino)-N-(4-(octyloxy)-3-(trifluoromethyl)phenyl)-N-(4-(pyridin-3-yl)thiazol-2-yl)acetamide] | > 6.00 |
| NC(=O)N(c1ccc(OCC2CCCCC2)c(F)c1)c1nc(-c2ccccn2)cs1 [Compound 118, 1-(4-(cyclohexylmethoxy)-3-fluorophenyl)-1-(4-(pyridin-2-yl)thiazol-2-yl)urea] | 5.00 to 6.00 |
| CCCCCCCCc1ccc(N(C(=O)OCCN(C)C)c2nc(-c3cccnc3)c(F)s2)cc1C(F)(F)F [Compound 179, 2-(dimethylamino)ethyl 5-fluoro-4-(pyridin-3-yl)thiazol-2-yl(4-octyl-3-(trifluoromethyl)phenyl)carbamate] | > 6.00 |
| CCCCCOc1ccc(N(C(=O)OC)c2nc(-c3ccc(F)cc3)cs2)cc1C(F)(F)F [Compound 47, methyl 4-(4-fluorophenyl)thiazol-2-yl(4-(pentyloxy)-3-(trifluoromethyl)phenyl)carbamate] | > 6.00 |
| CCCCCOc1ccc(N(C(C)=O)c2nc(-c3cccnc3)cs2)cc1F [Compound 24, N-(3-fluoro-4-(pentyloxy)phenyl)-N-(4-(pyridin-3-yl)thiazol-2-yl)acetamide] | > 6.00 |
| CCCCCCCCc1ccc(N(C(=O)CC(C)(C)c2c(C)cc(C)cc2OP(=O)(O)O)c2nc(-c3cccnc3)c(F)s2)cc1C(F)(F)F [Compound 182, 2-(4-((5-fluoro-4-(pyridin-3-yl)thiazol-2-yl)(4-octyl-3-(trifluoromethyl)phenyl)amino)-2-methyl-4-oxobutan-2-yl)-3,5-dimethylphenyl dihydrogen phosphate] | 5.00 to 6.00 |
| CCCCCOc1ccc(N(C(=O)C2CCCCC2)c2nc(-c3ccccn3)cs2)cc1C(F)(F)F [Compound 96, N-(4-(pentyloxy)-3-(trifluoromethyl)phenyl)-N-(4-(pyridin-2-yl)thiazol-2-yl)cyclohexanecarboxamide] | > 6.00 |
| CCCCCOc1ccc(N(C(=O)C(OC(C)=O)c2ccccc2)c2nc(-c3cccnc3)cs2)cc1C(F)(F)F (centres unmarked) [Compound 65, 2-oxo-2-((4-(pentyloxy)-3-(trifluoromethyl)phenyl)(4-(pyridin-3-yl)thiazol-2-yl)amino)-1-phenylethyl acetate] | > 6.00 |
| CCCCCCCCOc1ccc(N(C(=O)OCCOCCOCCOCCOC)c2nc(-c3cccnc3)c(F)s2)cc1C(F)(F)F [Compound 171, 2,5,8,11-tetraoxatridecan-13-yl 5-fluoro-4-(pyridin-3-yl)thiazol-2-yl(4-(octyloxy)-3-(trifluoromethyl)phenyl)carbamate] | > 6.00 |
| COc1ccc(N(C(N)=O)c2nc(-c3ccc(F)cc3)cs2)cc1C(F)(F)F [Compound 85, 1-(4-(4-fluorophenyl)thiazol-2-yl)-1-(4-methoxy-3-(trifluoromethyl)phenyl)urea] | > 6.00 |
| CCCCCOc1ccc(N(CC(=O)N(CC)CC)c2nc(-c3cccnc3)cs2)cc1C(F)(F)F [Compound 9, N,N-diethyl-2-((4-(pentyloxy)-3-(trifluoromethyl)phenyl)(4-(pyridin-3-yl)thiazol-2-yl)amino)acetamide] | < 5.00 |
